From ChEMBL document CHEMBL1151138, “3'-prenyl-4'-methoxy-isoflavone-7-O-beta-D-(2''-O-p-coumaroyl) glucopyranoside, a novel phytoestrogen from Sopubia delphinifolia” (1990) come the findings set out here.

Molecules are shown by their SMILES. The source made the active and inactive calls. No cut-off for these calls is given here.

Assay [1] concerns Rattus norvegicus. Description: Estrogenic activity in albino rat assessed as vaginal openings at 50 ug, po administered twice daily measured after 4 days relative to control. The class given is functional.
In assay [2] the test system is Rattus norvegicus. Put plainly: Estrogenic activity in albino rat assessed as vaginal openings at 10 ug, po administered twice daily measured after 4 days relative to control. Format: functional, organism-based.
Assay [3] has as its system Rattus norvegicus. Description: Estrogenic activity in albino rat assessed as uterus weight at 50 ug, po administered twice daily measured after 4 days. The class given is functional.
Assay [4] concerns Rattus norvegicus. Put plainly: Estrogenic activity in albino rat assessed as uterus weight at 10 ug, po administered twice daily measured after 4 days. Format: functional.
Assay [5] relates to Rattus norvegicus. Put plainly: Estrogenic activity in albino rat assessed as uterus weight at 20 ug, po administered twice daily measured after 4 days. Format: functional.

Turning to `COc1ccc(-c2coc3cc(O[C@@H]4O[C@H](CO)[C@@H](O)[C@H](O)[C@H]4OC(=O)/C=C/c4ccc(O)cc4)ccc3c2=O)cc1CC=C(C)C`, the Activity in assay [1] worked out at 100%; in assay [3] it was 33.21%; in assay [4], 18%; in assay [5], 27.79%. The result in assay [2] was inactive.
